We go through 6 compounds from paper PMC10316084, “Bacteroidota polysaccharide utilization system for branched dextran exopolysaccharides from lactic acid bacteria” (The Journal of Biological Chemistry, 2023).

The target of one assay is T1, FjDusD (Flavobacterium johnsoniae, UniProt A5FBI4).
T1 construct: gene Fjoh_4433; signal peptide evaluated by SignalP
T1 sequence (A5FBI4 22-494): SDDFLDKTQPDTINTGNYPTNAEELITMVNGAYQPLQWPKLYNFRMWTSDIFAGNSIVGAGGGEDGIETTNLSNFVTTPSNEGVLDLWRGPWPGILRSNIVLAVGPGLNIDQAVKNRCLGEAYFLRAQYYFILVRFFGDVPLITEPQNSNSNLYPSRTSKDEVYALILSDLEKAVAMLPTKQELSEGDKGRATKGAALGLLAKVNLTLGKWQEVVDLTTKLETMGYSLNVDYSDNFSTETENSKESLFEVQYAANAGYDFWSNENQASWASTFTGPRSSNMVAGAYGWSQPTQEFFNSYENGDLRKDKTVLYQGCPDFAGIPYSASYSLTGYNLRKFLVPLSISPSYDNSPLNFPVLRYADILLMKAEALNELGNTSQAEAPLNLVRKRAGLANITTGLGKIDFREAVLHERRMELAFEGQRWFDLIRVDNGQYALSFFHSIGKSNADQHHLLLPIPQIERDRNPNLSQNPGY
As to the kind of experiment: isothermal titration calorimetry. The class given is binding. The following applies: 10 mM HEPES-NaOH pH 7.0, 25 °C; one-site model (n = 1). The source says: isothermal titration calorimetry on FjDusD

In the next assay the target is T2, FjGH66 (Flavobacterium johnsoniae, UniProt A5FBI2).
T2 construct: gene Fjoh_4431; domains 41-126, 127-464, 485-586
T2 sequence (A5FBI2 34-586): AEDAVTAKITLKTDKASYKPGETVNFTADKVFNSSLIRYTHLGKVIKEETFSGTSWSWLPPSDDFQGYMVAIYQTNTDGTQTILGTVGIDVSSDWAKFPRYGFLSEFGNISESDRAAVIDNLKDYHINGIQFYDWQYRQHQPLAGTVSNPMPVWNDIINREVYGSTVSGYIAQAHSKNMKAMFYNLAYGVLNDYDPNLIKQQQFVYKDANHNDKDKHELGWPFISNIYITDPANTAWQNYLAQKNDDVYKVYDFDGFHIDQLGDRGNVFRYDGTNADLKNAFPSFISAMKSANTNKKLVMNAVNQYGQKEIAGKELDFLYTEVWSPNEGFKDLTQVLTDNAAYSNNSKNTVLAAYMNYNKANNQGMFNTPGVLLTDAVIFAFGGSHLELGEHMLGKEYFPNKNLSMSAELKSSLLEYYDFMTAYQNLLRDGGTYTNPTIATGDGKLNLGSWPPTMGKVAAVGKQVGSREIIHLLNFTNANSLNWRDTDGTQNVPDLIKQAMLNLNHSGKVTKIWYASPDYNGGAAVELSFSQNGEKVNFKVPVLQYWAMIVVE
As to the kind of experiment: X-ray crystal structure, […] Å. The class given is binding.

On to `OC[C@H]1O[C@H](OC[C@H]2O[C@H](OC[C@H]3O[C@H](OC[C@H]4O[C@H](OC[C@H]5O[C@H](OC[C@H]6OC(O)[C@H](O)[C@@H](O)[C@@H]6O)[C@H](O)[C@@H](O)[C@@H]5O)[C@H](O)[C@@H](O)[C@@H]4O)[C@H](O)[C@@H](O)[C@@H]3O)[C@H](O)[C@@H](O)[C@@H]2O)[C@H](O)[C@@H](O)[C@@H]1O` (stereo partly drawn) [Isomaltohexaose], for which, at FjDusD, binding was characterised by a dissociation constant (Kd) of 467 ± 156 µM.

In turn, `OC[C@H]1O[C@H](OC[C@H]2O[C@H](OC[C@H]3O[C@H](OC[C@H]4O[C@H](OC[C@H]5OC(O)[C@H](O)[C@@H](O)[C@@H]5O)[C@H](O)[C@@H](O)[C@@H]4O)[C@H](O)[C@@H](O)[C@@H]3O)[C@H](O)[C@@H](O)[C@@H]2O)[C@H](O)[C@@H](O)[C@@H]1O` (stereo partly drawn) [Isomaltopentaose] yielded a Kd at FjDusD of 226 ± 29 µM.

`OC[C@H]1O[C@H](OC[C@H]2OC(O)[C@H](O)[C@@H](O)[C@@H]2O)[C@H](O)[C@@H](O)[C@@H]1O` (stereo partly drawn) [Isomaltose]: on FjGH66 (crystal soaked with 10 mM IG2), the “X-ray crystal structure, 1.80 Å” value is “complexes with glucose, IG2, or IG3 were determined”.

At FjDusD, `OC[C@H]1O[C@H](OC[C@H]2O[C@H](OC[C@H]3O[C@H](OC[C@H]4OC(O)[C@H](O)[C@@H](O)[C@@H]4O)[C@H](O)[C@@H](O)[C@@H]3O)[C@H](O)[C@@H](O)[C@@H]2O)[C@H](O)[C@@H](O)[C@@H]1O` (stereo partly drawn) [Isomaltotetraose] had a Kd of 326 ± 14 µM.

The compound `OC[C@H]1O[C@H](OC[C@H]2O[C@H](OC[C@H]3OC(O)[C@H](O)[C@@H](O)[C@@H]3O)[C@H](O)[C@@H](O)[C@@H]2O)[C@H](O)[C@@H](O)[C@@H]1O` (stereo partly drawn) [Isomaltotriose] showed a Kd on FjDusD of 621 ± 23 µM. Against the preceding compound, the Kd is about 1.9-fold higher.

`OC[C@H]1OC(O)[C@H](O)[C@@H](O)[C@@H]1O` (stereo partly drawn) [glucose]: the “X-ray crystal structure, 1.80 Å” value at FjGH66 (crystal soaked with 10 mM glucose) is listed as “complexes with glucose, IG2, or IG3 were determined”.

What is called Kd is the equilibrium constant for the complex coming apart. A high value points to a looser complex.
